Source: patent US20230226084A1, “NON-INVASIVE METHOD OF TREATING COVID-19 INFECTION” (priority 2022, published 2023)

System: COVID-19 infection
Format: in vivo
Settings: one subject
[1] = confirmed COVID-19, furosemide orally twice daily, 40 mg mornings and 20 mg at 6 hours interval, for 3 days

Structure (SMILES): NS(=O)(=O)c1cc(C(=O)O)c(NCc2ccco2)cc1Cl [furosemide]
- Subsidence of symptoms (cough, headache, body ache, fever, breathing difficulties) [1]: subsided on the second day
- Total recovery of the subject [1]: totally recovered by night on the third day
- Infection status per Government hospital certificate, a while after treatment (after furosemide orally for 3 days): negative status for the infection
